Source: patent US5134137A, “Cephalosporin antibiotics” (The Upjohn Company, priority 1990, dated 1992)
Values after ≈ are worked out from the molar mass of the structure shown. Read-outs that look alike come from different tables or passages of the source.

Key:
Format in all cases: cell-based
Micrococcus luteus = assay: MIC, agar dilution, Micrococcus luteus; details: Micrococcus luteus; strain UC130; read-out: MIC
Description: (§1) Stock solution of each test antibiotic compound were prepared to have a concentration of 2 mg. of the test compound per milliliter in sterile water of 0.1M ammonium acetate solution. The amount of each compound used was adjusted for base compound activity as calculated from the purity data for the selected batch of compound.
(§2) The dilution procedure described by Washington and Sutter [Manual of Clinical Microbiology, 3rd, Edit. (Lennett, E. H. et al, Eds.), pp. 453-458 (1980), American Society for Microbiology, Washington, D.C.] was modified so that serial concentrations of 128 to 0.0625 microgram/ml. in sterile water was obtained. Then 1.5 ml. aliquots of these test antibiotic dilution mixtures are added to 13.5 molten (50° C.) Mueller-Hinton agar. Each resulting mixture is poured into 15×100 mm, sterile Petri plates and allowed to dry at room temperature overnight.
(§3) Test bacterial cultures are maintained at -70° C. on glass beads. [See R. J. Yancey, Jr. et al, Amer. Jr. of Vet. Research, 48, No. 7, pp. 1050-1053, (1987)]. At least one bacteria-laden bead per culture is dropped into one ml. of brain heart infusion (BHI) broth for overnight culture at 37° C. in 5% V/V carbon dioxide in air atmosphere.
(§4) On the data of assay, 2 to 8 drops of the bacterial broth cultures are transferred to fresh BHI broth (1 ml.) and the mixture is incubated for 4 to 6 hours at 37° C. in a 5% V/V carbon dioxide in air atmosphere. The resulting cultures are then diluted to match a 0.5 MacFarland standard and further diluted 1:20 V/V with sterile saline solution.
(§5) A 0.001 ml. drop of the resulting mixture, containing approximately 10^3 to 10^4 colony forming units (CFU) of each test bacteria organism, is dispensed onto the surface of the test antibiotic compound test plates with a Steer's type replicator. The resulting innoculated plates are incubated 16 to 18 hours at 37° C. with a carbon dioxide atmosphere.
as §1, with “Stock solutions” for “Stock solution”
as §2, with “mm.” for “mm,”
as §2, with “for Microbiology.” for “for Microbiology,”, “15×100 mm.” for “15×100 mm,”
as §3, with “culture” for “cultures”
(§6) On the day of assay, 2 to 8 drops of the bacterial broth cultures are transferred to fresh BHI broth (1 ml.) and the mixture is incubated for 4 to 6 hours at 37° C. in a 5% V/V carbon dioxide in air atmosphere. […]

Corynebacterium pyogenes = assay: MIC, agar dilution, Corynebacterium pyogenes; details: strain 213-2; read-out: MIC
Description: as §1, §2, §3, §4, §5
as §1, with “Stock solutions” for “Stock solution”
as §2, with “mm.” for “mm,”
as §2, with “for Microbiology.” for “for Microbiology,”, “15×100 mm.” for “15×100 mm,”
as §3, with “culture” for “cultures”
as §6

Staphylococcus aureus = assay: MIC, agar dilution, Staphylococcus aureus; details: Staphylococcus aureus, read-out: MIC
Description: as §1, §2, §3, §4, §5
as §1, with “Stock solutions” for “Stock solution”
as §2, with “mm.” for “mm,”
as §2, with “for Microbiology.” for “for Microbiology,”, “15×100 mm.” for “15×100 mm,”
as §3, with “culture” for “cultures”
as §6

Salmonella typhimurium = assay: MIC, agar dilution, Salmonella typhimurium; details: Salmonella enterica, read-out: MIC
Description: as §1, §2, §3, §4, §5
as §1, with “Stock solutions” for “Stock solution”
as §2, with “mm.” for “mm,”
as §2, with “for Microbiology.” for “for Microbiology,”, “15×100 mm.” for “15×100 mm,”
as §3, with “culture” for “cultures”
as §6

Escherichia coli = assay: MIC, agar dilution, Escherichia coli; details: Escherichia coli, read-out: MIC
Description: as §1, §2, §3, §4, §5
as §1, with “Stock solutions” for “Stock solution”
as §2, with “mm.” for “mm,”
as §2, with “for Microbiology.” for “for Microbiology,”, “15×100 mm.” for “15×100 mm,”
as §3, with “culture” for “cultures”
as §6

Pseudomonas aeruginosa = assay: MIC, agar dilution, Pseudomonas aeruginosa; details: Pseudomonas aeruginosa, ATCC27853; strain ATCC 27853; read-out: MIC
Description: as §1, §2, §3, §4, §5
as §1, with “Stock solutions” for “Stock solution”
as §2, with “mm.” for “mm,”
as §2, with “for Microbiology.” for “for Microbiology,”, “15×100 mm.” for “15×100 mm,”
as §3, with “culture” for “cultures”
as §6

Streptococcus suis = assay: MIC, agar dilution, Streptococcus suis; details: Streptococcus suis; strain 650-2; read-out: MIC
Description: as §1, §2, §3, §4, §5
as §1, with “Stock solutions” for “Stock solution”
as §2, with “mm.” for “mm,”
as §2, with “for Microbiology.” for “for Microbiology,”, “15×100 mm.” for “15×100 mm,”
as §3, with “culture” for “cultures”
as §6

Pasteurella multocida = assay: MIC, agar dilution, Pasteurella multocida; details: Pasteurella multocida; strain UC9581; read-out: MIC
Description: as §1, §2, §3, §4, §5
as §1, with “Stock solutions” for “Stock solution”
as §2, with “mm.” for “mm,”
as §2, with “for Microbiology.” for “for Microbiology,”, “15×100 mm.” for “15×100 mm,”
as §3, with “culture” for “cultures”
as §6

Pasteurella hemolytica = assay: MIC (minimum inhibitory concentration), agar dilution, Pasteurella hemolytica; details: Pasteurella, read-out: MIC
Description: as §1, §2, §3, §4, §5
as §1, with “Stock solutions” for “Stock solution”
as §2, with “mm.” for “mm,”
as §2, with “for Microbiology.” for “for Microbiology,”, “15×100 mm.” for “15×100 mm,”
as §3, with “culture” for “cultures”
as §6

Enterococcus faecalis = assay: MIC, agar dilution, Enterococcus faecalis; details: Enterococcus faecalis; strain UC694; read-out: MIC
Description: as §1, with “Stock solutions” for “Stock solution”
as §2, §3, §4, §5, §1
as §2, with “mm.” for “mm,”
as §2, with “for Microbiology.” for “for Microbiology,”, “15×100 mm.” for “15×100 mm,”
as §3, with “culture” for “cultures”
as §6

[1] = system: Streptococcus dysgalactiae; assay: MIC, agar dilution, Streptococcus dysgalactiae; details: Streptococcus dysgalactiae; strain UC251; read-out: MIC
Description: as §1, §2, §3, §4, §5
as §1, with “Stock solutions” for “Stock solution”
as §2, with “mm.” for “mm,”
as §2, with “for Microbiology.” for “for Microbiology,”, “15×100 mm.” for “15×100 mm,”
as §3, with “culture” for “cultures”
as §6

Streptococcus agalactiae = assay: MIC, agar dilution, Streptococcus agalactiae; details: Streptococcus agalactiae, read-out: MIC
Description: as §1, §2, §3, §4, §5
as §1, with “Stock solutions” for “Stock solution”
as §2, with “mm.” for “mm,”
as §2, with “for Microbiology.” for “for Microbiology,”, “15×100 mm.” for “15×100 mm,”
as §3, with “culture” for “cultures”
as §6

Salmonella choleraesuis = assay: MIC, agar dilution, Salmonella choleraesuis; details: Salmonella enterica, read-out: MIC
Description: as §1, §2, §3, §4, §5
as §1, with “Stock solutions” for “Stock solution”
as §2, with “mm.” for “mm,”
as §2, with “for Microbiology.” for “for Microbiology,”, “15×100 mm.” for “15×100 mm,”
as §3, with “culture” for “cultures”
as §6

[2] = system: Bordetella bronchiseptica; assay: MIC, agar dilution, Bordetella bronchiseptica; details: Bordetella bronchiseptica; strain UC6313; read-out: MIC
Description: as §1, §2, §3, §4, §5
as §1, with “Stock solutions” for “Stock solution”
as §2, with “mm.” for “mm,”
as §2, with “for Microbiology.” for “for Microbiology,”, “15×100 mm.” for “15×100 mm,”
as §3, with “culture” for “cultures”
as §6

Streptococcus uberis = assay: MIC, agar dilution, Streptococcus uberis; details: Streptococcus uberis, read-out: MIC
Description: as §1, §2, §3, §4, §5
as §1, with “Stock solutions” for “Stock solution”
as §2, with “mm.” for “mm,”
as §2, with “for Microbiology.” for “for Microbiology,”, “15×100 mm.” for “15×100 mm,”
as §3, with “culture” for “cultures”
as §6

Enterococcus faecium = assay: MIC, agar dilution, Enterococcus faecium; details: Enterococcus faecium; strain UC241; read-out: MIC
Description: as §1, with “Stock solutions” for “Stock solution”
as §2, §3, §4, §5, §1
as §2, with “mm.” for “mm,”
as §2, with “for Microbiology.” for “for Microbiology,”, “15×100 mm.” for “15×100 mm,”
as §3, with “culture” for “cultures”
as §6

Streptococcus bovis = assay: MIC, agar dilution, Streptococcus bovis; details: Streptococcus equinus; strain UC6281; read-out: MIC
Description: as §1, §2, §3, §4, §5
as §1, with “Stock solutions” for “Stock solution”
as §2, with “mm.” for “mm,”
as §2, with “for Microbiology.” for “for Microbiology,”, “15×100 mm.” for “15×100 mm,”
as §3, with “culture” for “cultures”
as §6

[3] = TYPHIMURIUM / UC6162, strain UC6162
[4] = TYPHIMURIUM / UC6164, strain UC6164
[5] = CHOLERAESUIS / UC6073, strain UC6073
[6] = CHOLERAESUIS / UC6077, strain UC6077

MIC (Micrococcus luteus)	MIC (Corynebacterium pyogenes)	MIC (Staphylococcus aureus; strain UC6093)	MIC (Staphylococcus aureus; strain UC6097)	MIC (Staphylococcus aureus; strain UC9203)	MIC (Salmonella typhimurium; [3])	MIC (Salmonella typhimurium; [4])	MIC (Escherichia coli; strain UC3784)	MIC (Escherichia coli; strain UC6720)	MIC (Escherichia coli; strain UC9670)	MIC (Pseudomonas aeruginosa)	MIC (Streptococcus suis)	MIC (Pasteurella multocida)	MIC (Enterococcus faecalis)	MIC [1]	MIC (Streptococcus agalactiae; strain UC6892)	SMILES	MIC (Pasteurella hemolytica; strain UC6531)	MIC (Pasteurella hemolytica; strain UC6532)	MIC (Pasteurella hemolytica; strain UC9582)	MIC (Salmonella choleraesuis; [5])	other results
≤ 0.06 µg/mL	0.25 µg/mL (≈ 0.453 µM)	1 µg/mL (≈ 1.81 µM)	1 µg/mL (≈ 1.81 µM)	1 µg/mL (≈ 1.81 µM)	16 µg/mL (≈ 29 µM)	16 µg/mL (≈ 29 µM)	8 µg/mL (≈ 14.5 µM)	16 µg/mL (≈ 29 µM)	8 µg/mL (≈ 14.5 µM)	> 32 µg/mL	≤ 0.06 µg/mL	2 µg/mL (≈ 3.63 µM)	> 32 µg/mL	≤ 0.06 µg/mL	≤ 0.06 µg/mL	CO/N=C(\C(=O)N[C@@H]1C(=O)N2C(C(=O)O)=C(CSSCc3ccccc3)CS[C@H]12)c1csc(N)n1 [Example 14]	0.5 µg/mL (≈ 0.906 µM)	0.25 µg/mL (≈ 0.453 µM)	2 µg/mL (≈ 3.63 µM)	16 µg/mL (≈ 29 µM)	MIC (Salmonella choleraesuis; [6]): 32 µg/mL (≈ 58 µM); MIC [2]: > 32 µg/mL; MIC (Streptococcus uberis; strain UC3946): ≤ 0.06 µg/mL; MIC (Streptococcus uberis; strain UC6159): 8 µg/mL (≈ 14.5 µM); MIC (Enterococcus faecium): > 32 µg/mL; MIC (Streptococcus bovis): ≤ 0.06 µg/mL
≤ 0.06 µg/mL	4 µg/mL (≈ 7.44 µM)	2 µg/mL (≈ 3.72 µM)	2 µg/mL (≈ 3.72 µM)	2 µg/mL (≈ 3.72 µM)	16 µg/mL (≈ 29.8 µM)	8 µg/mL (≈ 14.9 µM)	8 µg/mL (≈ 14.9 µM)	8 µg/mL (≈ 14.9 µM)	8 µg/mL (≈ 14.9 µM)	> 32 µg/mL	≤ 0.06 µg/mL	≤ 0.06 µg/mL	> 32 µg/mL	≤ 0.06 µg/mL	≤ 0.06 µg/mL	CO/N=C(\C(=O)N[C@@H]1C(=O)N2C(C(=O)O)=C(CSSc3ccccc3)CS[C@H]12)c1csc(N)n1 [Example 15]	0.13 µg/mL (≈ 0.242 µM)	0.25 µg/mL (≈ 0.465 µM)	0.25 µg/mL (≈ 0.465 µM)	32 µg/mL (≈ 59.5 µM)	MIC (Streptococcus agalactiae; strain UC3947): ≤ 0.06 µg/mL; MIC (Salmonella choleraesuis; [6]): 32 µg/mL (≈ 59.5 µM); MIC [2]: > 32 µg/mL; MIC (Streptococcus uberis; strain UC3946): ≤ 0.06 µg/mL; MIC (Streptococcus uberis; strain UC6159): 16 µg/mL (≈ 29.8 µM); MIC (Enterococcus faecium): > 32 µg/mL; MIC (Streptococcus bovis): ≤ 0.06 µg/mL
